Laboratory results as given in patent US20040005311A1, “Dietary supplement compositions” (priority 2003, published 2004).

System: Alzheimer's disease-related / dementia-related symptoms
Assay: Dietary supplementation of dementia subjects (case accounts by caregiver and physician)
Type: in vivo, human
Details: Subject #3; diet also supplemented with yellow corn, pineapple and tomato sauce products
Procedure: Prior to addressing the patient's dementia problem, a complete diagnosis of the subject was performed by a qualified physician.
The diets of these four subjects were also supplemented, to varying degrees, with yellow corn, pineapple and tomato sauce products.

CC(C)=CCC/C(C)=C/C=C/C(C)=C/C=C/C(C)=C/C=C/C=C(C)/C=C/C=C(C)/C=C/C=C(\C)CCC=C(C)C [lycopene]
symptoms (memory loss, anxiety, eating less): still exhibiting reduced symptoms
